Experimental data as given in US10869931B2, “Polyethylene glycol-modified angiogenesis inhibitor HM-1 and application thereof” (NANJING ANJI BIOLOGICAL TECHNOLOGY CO.,LTD, priority 2016, dated 2020).
Marks after values point to notes of the source that are not given here. Where no end group is shown, it is not given here.

Legend:
[1] = test system: choroidal neovascularization in BN rats; assay: Laser-induced choroidal neovascularization in BN rats (FFA); assay type: in vivo, rat
Procedure, shortened: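 Male BN rats (6–8 weeks) received 8 laser photocoagulation spots per eye around the optic disc (647.1 nm, 350 mW, 50 μm, 0.05 s). Confirmed models, 5 per group, were given saline or PEG-modified HM-1 intravitreally once daily for 1 week. FFA was done 3, 7, 14 and 28 days after dosing.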

[2] = test system: carrageenan-induced toe swelling in SD rats; assay: Carrageenan-induced acute toe swelling in rats; assay type: in vivo, rat; parameters: Swelling: unit not given here; details: for Swelling: 40 mg/kg once a day for 3 days
Procedure, shortened: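 SD rats dosed with mPEG-HM-1 once daily for 3 days […]; 1 h after last dose, 0.1 mL 1% carrageenan injected subcutaneously into right hind paw. Paw volume measured by liquid displacement at 1, 3, 5 and 7 h; swelling = post- minus pre-inflammation volume (mL).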

[3] = in vivo
[4] = test system: IL-1β production by mouse peritoneal macrophages; assay: IL-1β production by mouse peritoneal macrophages (ELISA); assay type: cell-based; details: 48 h
Procedure, shortened: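 Starch-elicited mouse peritoneal macrophages (2×10^6 cells/mL), adhered 3 h, treated with low, medium and high concentrations of mPEG-HM-1 for 48 h; dexamethasone as positive control. Supernatant IL-1β quantified by sandwich ELISA at OD450.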

[5] = test system: retinal neovascular clusters in OIR C57/B16 mice; assay: Retinal blood vessels in OIR mice; assay type: in vivo, mouse; details: for Neovascular clusters area: retina evaluated on day 17; for Inhibition rate: neovascular clusters area vs control, day 17
Procedure, shortened: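 C57/B16 pups and mothers were held in 75% oxygen from postnatal day 7 to 12, then returned to room air. On day 13 the PEGylated HM-1 conjugates or saline were given by intravitreal injection; on day 17 retinal vessels were assessed after intracardiac Texas Red-tomato lectin, circulated 5 min.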

## mPEG-bALD10k-Arg-Gly-Ala-Asp-Arg-Ala-Gly-Gly-Gly-Gly-Arg-Gly-Asp ({mPEG‑bALD 10 kDa}-RGADRAGGGGRGD) [mPEG-bALD10k-HM-1]
[1]; Day 3 after administration, 50 μg intravitreally once daily for 1 week (Table 53)
  CNV Incidence rate: 48.46%
[1]; Day 3 after administration, 50 μg intravitreally once daily for 1 week (Table 53), total spots 290-296 by table
  leakage Spots #: 142
[1]; Day 7, 50 μg intravitreally once daily for 1 week (Table 53)
  CNV Incidence rate: 46.49%
[1]; Day 7, 50 μg intravitreally once daily for 1 week (Table 53), total spots 182-188 by table
  leakage Spots #: 86
[1]; Day 14, 50 μg intravitreally once daily for 1 week (Table 53)
  CNV Incidence rate: 42.03%
[1]; Day 14, 50 μg intravitreally once daily for 1 week (Table 53), total spots 132-138 by table
  leakage Spots #: 58
[1]; Day 28, 50 μg intravitreally once daily for 1 week (Table 53)
  CNV Incidence rate: 39.13%
[1]; Day 28, 50 μg intravitreally once daily for 1 week (Table 53), total spots 67-71 by table
  leakage Spots #: 27
[2]; rats, 40 mg/kg, once a day for 3 days
  inhibition of carrageenan-induced toe swelling (in words): most effective
[3]
  AUC0-∞: 5108.42 ± 9.98 mg/L/h
  CL: 0.417 ± 0.175 mL/min/kg
  MRT0-∞: 11.97 ± 8.86 h
  T1/2β (half-life): 16.83 ± 0.13 h
[4]; 10 μg/mL
  IL-1β: 720.77 ± 16.65 pg/mL
  Inhibition Rate of IL-1β production: 21.84%
[4]; 20 μg/mL
  IL-1β: 633.90 ± 14.73 pg/mL
  Inhibition Rate of IL-1β production: 31.26%
[4]; 40 μg/mL
  IL-1β: 460.53 ± 10.42 pg/mL
[5]; 50 μg intravitreal injection on day 13
  Neovascular clusters area: 0.083 ± 0.006 mm^2
[5]; 50 μg intravitreal
  Inhibition rate: 62.35%**
[5]; OIR mice, 50 μg intravitreal injection, evaluated day 17
  inhibition rate of retinal neovascular clusters: 62.35%

## mPEG-bALD20k-Arg-Gly-Ala-Asp-Arg-Ala-Gly-Gly-Gly-Gly-Arg-Gly-Asp ({mPEG‑bALD 20 kDa}-RGADRAGGGGRGD) [mPEG-bALD20k-HM-1]
[1]; Day 3 after administration, 100 μg intravitreally once daily for 1 week (Table 53)
  CNV Incidence rate: 51.54%
[1]; Day 3 after administration, 100 μg intravitreally once daily for 1 week (Table 53), total spots 290-296 by table
  leakage Spots #: 151
[1]; Day 7, 100 μg intravitreally once daily for 1 week (Table 53)
  CNV Incidence rate: 49.19%
[1]; Day 7, 100 μg intravitreally once daily for 1 week (Table 53), total spots 182-188 by table
  leakage Spots #: 91
[1]; Day 14, 100 μg intravitreally once daily for 1 week (Table 53)
  CNV Incidence rate: 45.65%
[1]; Day 14, 100 μg intravitreally once daily for 1 week (Table 53), total spots 132-138 by table
  leakage Spots #: 63
[1]; Day 28, 100 μg intravitreally once daily for 1 week (Table 53)
  CNV Incidence rate: 40.58%
[1]; Day 28, 100 μg intravitreally once daily for 1 week (Table 53), total spots 67-71 by table
  leakage Spots #: 28
[2]; 1 h after carrageenan
  Swelling: 0.25 ± 0.15
[2]; 3 h after carrageenan
  Swelling: 0.35 ± 0.14
[2]; 5 h after carrageenan
  Swelling: 0.42 ± 0.15
[2]; 7 h after carrageenan
  Swelling: 0.36 ± 0.18
[3]
  AUC0-∞: 5872.56 ± 8.72 mg/L/h
  CL: 0.212 ± 0.155 mL/min/kg
  MRT0-∞: 18.32 ± 2.99 h
  T1/2β (half-life): 22.94 ± 0.24 h
[4]; 20 μg/mL
  IL-1β: 738.66 ± 12.81 pg/mL
  Inhibition Rate of IL-1β production: 19.90%
[4]; 40 μg/mL
  IL-1β: 640.26 ± 14.28 pg/mL
  Inhibition Rate of IL-1β production: 30.57%
[4]; 80 μg/mL
  IL-1β: 487.37 ± 12.06 pg/mL
  Inhibition Rate of IL-1β production: 47.15%
[5]; 100 μg intravitreal injection on day 13
  Neovascular clusters area: 0.097 ± 0.011 mm^2
[5]; 100 μg intravitreal
  Inhibition rate: 56.22%**
